Laboratory results taken from ChEMBL document CHEMBL1201862, “PubChem BioAssay data set” (2004).
Values belong to the compound of their own block, whether it stands above or below them. The source made the active and inactive calls.

What was measured:
Candida albicans [1] = experiment: Candida growth reduction in fluconazole presence – CaCi-2 strain, Alamar Blue, dry powder, set 2, antifungal resistance reversal project, dose response (AID 488930); format: functional, organism-based
Candida albicans [2] = experiment: single-agent antifungal toxicity in C. albicans – CaCi-2 strain, Alamar Blue, dry powder, set 2, counter-screen for antifungal drug resistance project, dose response (AID 488893); format: functional, organism-based
Candida albicans [3] = experiment: resistant Candida growth with fluconazole co-treatment – CaCi-8 strain, Alamar Blue, dry powder, set 2, dose response (AID 488909); format: functional, organism-based
Candida albicans [4] = experiment: fluconazole-resistant Candida strain growth inhibitors – CaCi-8 strain, dry powder, set 4, dose response (AID 488950); format: functional, organism-based
Candida albicans [5] = experiment: C. albicans growth inhibition with fluconazole – CaCi-2 strain, Alamar Blue, dry powder, set 4, dose response (AID 488943); format: functional, organism-based
A-375 = experiment: proliferation inhibition in MITF-low A375 cells – cell-based, cherry-pick samples, set 2, counter-screen for MITF modulator project, dose response (AID 540335); format: functional; settings: Homo sapiens
[6] = Luminescence Cell-Based Dose Retest to Confirm Inhibitors of Cancer Stem Cells. [Related pubchem assays (depositor defined):AID2717, AID2721]; format: functional; settings: Homo sapiens
[7] = biological target: T1, Microphthalmia-associated transcription factor (Homo sapiens, UniProt O75030); experiment: reducers of TRPM1 reporter luminescence, concentration series – cell-based, SK-MEL-5, cherry-picked, set 3, MITF inhibitor project, dose response (AID 493073); format: functional;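 further: SK-MEL-5 melanoma cells with luciferase driven by the MITF target TRPM1 promoter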
T1 sequence (O75030 whole entry): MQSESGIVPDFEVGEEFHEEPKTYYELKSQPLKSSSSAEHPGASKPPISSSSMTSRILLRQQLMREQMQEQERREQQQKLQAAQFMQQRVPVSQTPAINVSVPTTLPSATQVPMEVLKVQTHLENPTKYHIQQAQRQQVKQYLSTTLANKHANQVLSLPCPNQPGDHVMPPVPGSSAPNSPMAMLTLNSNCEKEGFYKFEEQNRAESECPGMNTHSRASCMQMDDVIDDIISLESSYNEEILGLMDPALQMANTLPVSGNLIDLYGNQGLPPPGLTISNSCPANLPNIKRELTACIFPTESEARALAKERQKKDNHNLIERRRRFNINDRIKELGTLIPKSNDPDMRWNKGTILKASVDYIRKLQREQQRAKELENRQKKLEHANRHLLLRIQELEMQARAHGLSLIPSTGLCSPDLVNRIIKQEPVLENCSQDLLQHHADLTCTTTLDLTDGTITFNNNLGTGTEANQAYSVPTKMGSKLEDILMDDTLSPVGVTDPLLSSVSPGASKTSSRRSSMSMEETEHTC

[8] = viability of PTEN-deleted HCT116 cells – cell-based, HCT116 PTEN knockout, dose response (AID 1047); format: functional;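 further: HCT116 colon tumor cells with PTEN knocked out; cells exposed to compound for 60 hours before readout; potency for loss of cell viability measured by luminescence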
[9] = viability of HCT116 lacking mutant beta-catenin – cell-based, human colon tumor, dose response (AID 1045); format: functional;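 further: HCT116 colon tumor cells with beta catenin knocked out; cells exposed to compound for 60 hours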
[10] = biological target: T2, Sentrin-specific protease 6 (Homo sapiens, UniProt Q9GZR1); experiment: inhibition of human SENP6 catalytic domain – biochemical, luminescence, set 2, SAR follow-up (AID 588598); format: functional
T2 sequence (Q9GZR1 whole entry): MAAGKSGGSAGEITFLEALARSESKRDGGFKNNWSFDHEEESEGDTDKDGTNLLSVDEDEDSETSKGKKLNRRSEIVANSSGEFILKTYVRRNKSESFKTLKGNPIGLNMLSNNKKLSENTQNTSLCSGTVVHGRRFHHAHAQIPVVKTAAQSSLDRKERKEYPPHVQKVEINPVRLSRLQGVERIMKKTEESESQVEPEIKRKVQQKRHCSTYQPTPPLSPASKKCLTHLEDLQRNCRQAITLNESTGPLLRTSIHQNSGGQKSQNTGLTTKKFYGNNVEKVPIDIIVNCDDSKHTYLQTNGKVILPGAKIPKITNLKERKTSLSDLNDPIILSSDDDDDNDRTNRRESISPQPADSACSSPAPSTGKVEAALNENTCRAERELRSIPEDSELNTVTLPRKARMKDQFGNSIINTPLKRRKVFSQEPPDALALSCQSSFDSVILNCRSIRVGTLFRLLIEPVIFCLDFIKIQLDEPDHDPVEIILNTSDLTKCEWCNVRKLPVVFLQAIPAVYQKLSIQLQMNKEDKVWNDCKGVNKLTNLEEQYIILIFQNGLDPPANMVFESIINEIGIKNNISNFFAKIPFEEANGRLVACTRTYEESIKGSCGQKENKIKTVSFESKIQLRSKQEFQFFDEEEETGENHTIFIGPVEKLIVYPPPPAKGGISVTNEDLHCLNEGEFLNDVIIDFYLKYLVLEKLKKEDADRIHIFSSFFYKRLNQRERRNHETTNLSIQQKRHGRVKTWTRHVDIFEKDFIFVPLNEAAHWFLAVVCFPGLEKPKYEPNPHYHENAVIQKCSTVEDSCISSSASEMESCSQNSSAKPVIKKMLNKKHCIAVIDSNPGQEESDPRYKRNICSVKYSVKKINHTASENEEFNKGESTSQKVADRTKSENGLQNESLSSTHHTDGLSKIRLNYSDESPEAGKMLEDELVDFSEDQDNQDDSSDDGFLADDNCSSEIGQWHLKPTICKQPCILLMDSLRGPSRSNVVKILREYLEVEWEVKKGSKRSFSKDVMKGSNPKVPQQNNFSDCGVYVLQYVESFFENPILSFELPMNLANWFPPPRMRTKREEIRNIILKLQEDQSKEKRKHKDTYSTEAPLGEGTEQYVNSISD

Caspase-3 = biological target: T3, Caspase-3 (Homo sapiens, UniProt P42574); experiment: inhibition of recombinant caspase-3 activity – biochemical, luminescence, set 2, selectivity assay for SENP protease inhibitor project, SAR follow-up (AID 588599); format: functional
T3 sequence (P42574 whole entry): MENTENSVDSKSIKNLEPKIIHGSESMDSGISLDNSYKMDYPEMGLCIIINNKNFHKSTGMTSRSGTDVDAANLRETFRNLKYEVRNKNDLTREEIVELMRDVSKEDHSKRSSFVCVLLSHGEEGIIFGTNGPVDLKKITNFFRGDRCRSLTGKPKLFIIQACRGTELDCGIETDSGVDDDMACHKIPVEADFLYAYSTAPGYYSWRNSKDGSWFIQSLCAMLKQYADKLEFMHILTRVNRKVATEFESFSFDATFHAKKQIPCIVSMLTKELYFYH

[11] = biological target: T4, Sentrin-specific protease 7 (Homo sapiens, UniProt Q9BQF6); experiment: inhibition of human SENP7 cleavage activity – biochemical, luminescence, set 2, SAR follow-up (AID 588600); format: functional
T4 sequence (Q9BQF6 whole entry): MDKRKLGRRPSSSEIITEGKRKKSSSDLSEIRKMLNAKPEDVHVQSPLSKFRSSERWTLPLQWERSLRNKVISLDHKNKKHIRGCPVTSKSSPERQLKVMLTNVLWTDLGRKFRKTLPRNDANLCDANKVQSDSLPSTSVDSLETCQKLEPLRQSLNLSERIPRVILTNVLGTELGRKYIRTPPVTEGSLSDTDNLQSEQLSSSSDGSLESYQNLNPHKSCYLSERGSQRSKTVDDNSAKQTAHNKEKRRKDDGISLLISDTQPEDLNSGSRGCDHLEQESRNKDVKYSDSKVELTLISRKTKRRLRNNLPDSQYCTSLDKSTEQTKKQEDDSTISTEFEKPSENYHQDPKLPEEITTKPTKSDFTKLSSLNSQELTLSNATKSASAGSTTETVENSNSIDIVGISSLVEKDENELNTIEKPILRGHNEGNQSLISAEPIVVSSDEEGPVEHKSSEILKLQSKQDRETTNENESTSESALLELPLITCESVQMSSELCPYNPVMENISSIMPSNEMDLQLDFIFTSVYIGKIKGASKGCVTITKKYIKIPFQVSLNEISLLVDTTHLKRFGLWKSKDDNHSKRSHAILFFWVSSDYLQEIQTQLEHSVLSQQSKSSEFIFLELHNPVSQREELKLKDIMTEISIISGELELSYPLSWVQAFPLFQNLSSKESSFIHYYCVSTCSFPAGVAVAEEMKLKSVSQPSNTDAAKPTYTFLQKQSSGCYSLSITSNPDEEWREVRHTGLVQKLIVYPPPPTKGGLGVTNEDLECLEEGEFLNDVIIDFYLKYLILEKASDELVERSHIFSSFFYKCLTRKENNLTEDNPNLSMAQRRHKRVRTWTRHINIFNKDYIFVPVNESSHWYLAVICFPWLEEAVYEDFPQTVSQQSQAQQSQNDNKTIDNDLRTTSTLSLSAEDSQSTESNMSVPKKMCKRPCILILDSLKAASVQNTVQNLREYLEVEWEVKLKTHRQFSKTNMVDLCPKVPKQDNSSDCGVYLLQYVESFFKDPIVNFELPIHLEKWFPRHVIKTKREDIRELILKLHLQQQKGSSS

[12] = biological target: T5, Sentrin-specific protease 8 (Homo sapiens, UniProt Q96LD8); experiment: inhibition of sentrin protease 8 – biochemical, luminescence, set 2, SAR follow-up (AID 588601); format: functional
T5 sequence (Q96LD8 whole entry): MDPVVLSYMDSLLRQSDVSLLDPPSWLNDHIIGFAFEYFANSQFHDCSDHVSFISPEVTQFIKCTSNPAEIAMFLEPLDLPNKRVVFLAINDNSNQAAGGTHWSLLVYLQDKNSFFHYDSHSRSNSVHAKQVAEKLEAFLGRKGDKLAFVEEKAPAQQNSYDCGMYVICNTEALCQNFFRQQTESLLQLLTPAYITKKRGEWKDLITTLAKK

SMILES: COc1ccc(C(=O)N2CCN(c3ccnc4cc(Cl)ccc34)CC2)cc1
AC50 (Candida albicans [1]): 4.25 µM (active)
AC50 (Candida albicans [2]): 32.2 µM (active)
AC50 (Candida albicans [3]): 10.2 µM (active)
AC50 (Candida albicans [4]): 5.38 µM (active)
AC50 (Candida albicans [5]): 4.15 µM (active)

SMILES: Cc1ccc(NC2=C(Cl)C(=O)c3ccccc3C2=O)cc1
AC50 (A-375): 12.6 µM (active)
AC50 [6]: 1.17 µM (active)
AC50 [7]: 5.25 µM (active)
EC50 [8]: 10.7 µM (active)
EC50 [9]: 4.88 µM (active)

IC50 [10]: > 99 µM (inactive)
IC50 (Caspase-3): > 99 µM (inactive)
IC50 [11]: > 99 µM (inactive)
SMILES: Cc1[nH]c2ccccc2c1C(=O)C(=O)NCCCN1CCOCC1
IC50 [12]: > 99 µM (inactive)
